Here are results for 81 molecules from paper PMC12040169 (PLOS Biology, 2025).

A word on the viability: it is a read-out of living cells in per cent, often relative to untreated cells.

The first data set in a line: in vitro. Conditions: human, hela cells.
Turning to `O=P(O)(O)/C=C(\Cl)c1ccccc1` [CBK261019], the viability at 28.5 h, 10 µM was found to be 97.8%.

Still in this data set, the particulars now being: human, hela cells, % viability.
As for `Cn1c(=O)c2[nH]c(NCCN3CCOCC3)nc2n(C)c1=O` [CBK266189], the viability at 28.5 h, 10 µM came out at 98.6%. In the case of `Cc1cccn2c(=O)cc(CN3CCc4nn(C)c(=O)cc4C3)nc12` [CBK305514], the viability at 28.5 h, 10 µM came to 98.2%. Consider `Cc1cc(C)n2c(Nc3ccc(S(N)(=O)=O)cc3)nnc2n1` [CBK267601], for which the viability at 28.5 h, 10 µM was found to be 110%. As to `COC(=O)c1ccc(NC(=S)N2CCC(C(N)=O)CC2)cc1` [CBK267232], the viability at 28.5 h, 10 µM stood at 90.2%. For `COc1ccc(C(C)C)cc1-c1cnc(N)c(NC2CCCCC2)n1` [CBK063618], the viability at 28.5 h, 10 µM worked out at 108%.

For the molecule `CC(C)C(=O)N1CC2(CCN(Cc3cc(=O)[nH]c(=O)[nH]3)CC2)c2ccccc21` [CBK144602T], the viability at 28.5 h, 10 µM stood at 107%. Still for that read-out and setting: with `Cc1c(C(N)=O)sc2ncn(CC(=O)NCCc3ccccc3)c(=O)c12` [CBK268514] the figure was 90.4%; with `COc1ccc(-c2cnc3[nH]c(=O)n(CC(C)(C)CO)c3n2)c(OC)c1OC` [CBK064833], 91.8%.

With `COc1ccc(-c2cc(N3CCCN(C)CC3)n3nccc3n2)cc1` [CBK037244], the viability at 28.5 h, 10 µM was 106%.

Regarding `CCn1c(C(O)c2ccc(OC)c(OC)c2)nc2ccccc21` (stereo not drawn) [CBK262974], the viability at 28.5 h, 10 µM stood at 90.1%. With `Cn1c(Cc2ccccc2)nnc1Sc1ccc(C(=O)O)cc1[N+](=O)[O-]` [CBK265038], the viability at 28.5 h, 10 µM is 99.6%.

Turning to `CN(C(=O)C1(C)CCOCC1)c1nc2c(s1)CC(c1ccccc1)CC2` (stereo not drawn) [CBK305531], the viability at 28.5 h, 10 µM came to 82.8%. `O=S(=O)(c1ccc(Cl)cc1)N1CCN(c2ccccc2)CC1` [CBK067987]: the viability at 28.5 h, 10 µM is 100%.

In the case of `CN1CCC(N(C)C(=O)Nc2ccc(C(N)=O)cc2)C1` (stereo not drawn) [CBK156015], the viability at 28.5 h, 10 µM is 93.8%.

Consider `CC(=O)N1CCc2c([nH]c3ccccc23)C12CCCN(CCC#N)C2` (stereo not drawn) [CBK039665], for which the viability at 28.5 h, 10 µM turned out to be 91.6%. In the case of `CN(C)c1nc(N(C)CC2(CO)CCOCC2)ncc1F` [CBK307091], the viability at 28.5 h, 10 µM came out at 110%. `COCC(=O)N1CCC(c2cc(-c3ccc(F)cc3)n[nH]2)C1` (stereo not drawn) [CBK284600]: the viability at 28.5 h, 10 µM amounted to 101%. On to `c1ccc(Sc2nccnc2N2CCCC2)nc1` [CBK093734], for which the viability at 28.5 h, 10 µM turned out to be 87.7%. Take `CN(C)CC1CCCN(C(=O)c2cc3cc(Cl)ccc3n2C)C1` (stereo not drawn) [CBK282121]: the viability at 28.5 h, 10 µM came out at 111%. Take `O=C(O)c1nnn(-c2ccccc2)c1-c1ccncc1` [CBK288041]: the viability at 28.5 h, 10 µM worked out at 95.1%. With `COc1ccc(-c2csc(Nc3ccc(S(=O)(=O)Nc4cc(C)on4)cc3)n2)cc1OC` [CBK261797B], the viability at 28.5 h, 10 µM came out at 95.3%. `CC(C)(C)OC(=O)N1Cc2c(-c3noc(C4CC4)n3)ncn2-c2ccc(Cl)cc21` [CBK007792]: the viability at 28.5 h, 10 µM is 90.2%. `OC(c1ccncc1)C(O)c1ccncc1` (stereo not drawn) [CBK024254]: the viability at 28.5 h, 10 µM turned out to be 87.1%.

As for `COc1ccc(C(F)(F)F)cc1N` [CBK038366], the viability at 28.5 h, 10 µM came to 89.6%. Take `O=C(c1ccc2c(c1)OCO2)N1CCN(C/C=C/c2ccccc2)CC1` [CBK262639]: the viability at 28.5 h, 10 µM was found to be 105%. On the same count and under the same terms, with `CCOc1ccc(C(C)(CC(=O)O)C(=O)O)cc1` (stereo not drawn) [CBK261361] the figure was 102%; with `CCOC(=O)C1(C2CCCCC2)CCN(C(=O)C2COc3ccccc3O2)CC1` (stereo not drawn) [CBK136925], 101%; with `COc1ccc(C(=O)N2CCCN(Cc3ccc(C#N)cc3)CC2)cc1` [CBK305374], 94.7%.

For `CNC(=O)C1(Cc2ccc(-c3ccccc3)cc2)CCN(C(=O)Cc2ccccc2F)CC1` [CBK285768], the viability at 28.5 h, 10 µM stood at 94.8%. In the case of `COc1ccc(C)cc1NC(=O)CSc1nnc(-c2ccccc2Cl)n1-c1ccccc1` [CBK267538], the viability at 28.5 h, 10 µM was determined as 82.9%.

In the case of `Cc1ccc(NC(=O)c2cnc3ccc(C)cn3c2=O)cc1` [CBK287285], the viability at 28.5 h, 10 µM was 90.2%. With `CCCNC(=O)CN1CCC(NC(=O)Cn2cc(Br)ccc2=O)CC1` [CBK305665], the viability at 28.5 h, 10 µM is 94%. For the molecule `Cn1c(SCC(=O)Nc2ccnc3ccccc23)nnc1-c1ccncc1` [CBK267867], the viability at 28.5 h, 10 µM worked out at 105%. On the same count and under the same terms, with `O=C(Cc1cn2ccsc2n1)Nc1ccc(N2CCCCC2)cc1` [CBK306185] the figure was 79%. As for `Cc1cn(CC(=O)NCC2(c3cccc(F)c3)CCCC2)nn1` [CBK281436], the viability at 28.5 h, 10 µM turned out to be 89.7%. As for `c1ccc(CNc2nc(-c3ccncc3)cs2)cc1` [CBK058609], the viability at 28.5 h, 10 µM was determined as 91%. As to `CSC(=S)n1c(C)nc2ccccc21` [CBK018539], the viability at 28.5 h, 10 µM was found to be 92.3%. Consider `C=CCOc1cccc(CNc2nn[nH]n2)c1` [CBK267618], for which the viability at 28.5 h, 10 µM is 109%. Regarding `CC(COC(C)(C)C)Oc1nccnc1OCc1ccc(Cl)c(Cl)c1` (stereo not drawn) [CBK161607], the viability at 28.5 h, 10 µM amounted to 113%.

For `O=C(Cc1ccccc1)N1CCN(S(=O)(=O)N2CCCCC2)CC1` [CBK269097], the viability at 28.5 h, 10 µM was 85.2%.

Take `O=C(Nc1ccc(S(=O)(=O)N2CCCCCC2)cc1)c1ccc(NS(=O)(=O)c2ccccc2)cc1` [CBK268018]: the viability at 28.5 h, 10 µM was 90.4%. On the same count and under the same terms, then `O=S(=O)(Nc1nnn[nH]1)c1ccccc1Br` [CBK062386], with 96.3%; and `COC(=O)c1cc(S(=O)(=O)N2c3ccccc3CC2C)cn1C` (stereo not drawn) [CBK304384], with 81.4%; and `CCOC(=O)C1CCCN(C(=O)Nc2cc(C)on2)C1` (stereo not drawn) [CBK305661], with 81.8%. For the molecule `CC1Cc2ccccc2N1C(=O)c1nn(C)cc1I` (stereo not drawn) [CBK058268], the viability at 28.5 h, 10 µM was 97.3%. On the same count and under the same terms, then `O=C(NC1CCNC1)c1cccc(S(=O)(=O)NCc2ccsc2)c1` (stereo not drawn) [CBK306706], with 88%.

Turning to `O=C(Cc1ccc(F)cc1)N1CCCC1c1cccc(Cc2ccc(F)cc2)n1` (stereo not drawn) [CBK286234], the viability at 28.5 h, 10 µM turned out to be 94.7%.

Consider `O=C1NCC2(C/C=C/CCOc3ccccc31)CCN(C(=O)CCN1CCCC1)CC2` [CBK292020], for which the viability at 28.5 h, 10 µM turned out to be 87.5%. On to `OCc1ccc(-c2nccnc2NCc2cccc(C(F)(F)F)c2)cc1` [CBK037076], for which the viability at 28.5 h, 10 µM worked out at 114%. Same read-out and setting: then `O=C(CC(C(=O)O)n1cnc([N+](=O)[O-])n1)c1ccc(Br)cc1` (stereo not drawn) [CBK267524], with 89%; and `Cc1noc(C)c1S(=O)(=O)Nc1ccc2nsnc2c1` [CBK062223], with 90.4%. Still for that read-out and setting: then `COc1ccc(-c2cnc(NCCOc3ccccc3)c(C(=O)NCC3COc4ccccc4O3)c2)cc1` (stereo not drawn) [CBK076332], with 97.2%; and `Cc1nc(CCNCc2c(C(C)C)nn(C)c2N(C)C)cs1` [CBK304002], with 98.8%; and `C=CCNc1nc(NCCN2CCOCC2)nc(N2CCOCC2)n1` [CBK263074], with 112%.

As for `COc1ccc(-c2ccc(=O)n(CCN)n2)cc1` [CBK270130C], the viability at 28.5 h, 10 µM turned out to be 97.2%.

As to `CCC(CC)(CC(=O)Nc1ccc(N2CCCC2=O)c(C)c1)C(=O)O` [CBK297881], the viability at 28.5 h, 10 µM came to 101%.

As to `COC(=O)c1ccc(-c2ccsc2)nc1` [CBK149229], the viability at 28.5 h, 10 µM was 116%. Turning to `Cc1cc(O)cc(C2CCCN(C(=O)c3cccc(F)c3)C2)n1` (stereo not drawn) [CBK283440], the viability at 28.5 h, 10 µM is 100%. As for `CCC(=O)N1CCCC(c2nnc(-c3cccs3)o2)C1` (stereo not drawn) [CBK283060], the viability at 28.5 h, 10 µM worked out at 92%.

As for `CN1CCN(C(=O)COc2ccc(S(=O)(=O)Nc3ccc(F)cc3)cc2)CC1` [CBK268454], the viability at 28.5 h, 10 µM amounted to 94.5%.

As to `NS(=O)(=O)c1ccc(NC(=S)NCCN2CCOCC2)cc1` [CBK265818], the viability at 28.5 h, 10 µM was found to be 107%.

As for `Cc1nc2ccc(C(=O)N(C)CCN(C)C)cn2c1N(C)C(=O)c1cccs1` [CBK146528], the viability at 28.5 h, 10 µM is 120%. For `Fc1c(F)c(Oc2ccccc2Cl)c(F)c(F)c1/C=C/CN1CCOCC1` [CBK269318C], the viability at 28.5 h, 10 µM was 96.7%. Consider `COc1ccc(C(C)C)cc1-c1cnc2nc(N)ccc2c1` [CBK081216], for which the viability at 28.5 h, 10 µM turned out to be 97.7%. Take `Cc1ccc(OCC(=O)N2CCN(S(=O)(=O)c3ccc([N+](=O)[O-])cc3)CC2)cc1` [CBK264267]: the viability at 28.5 h, 10 µM is 103%. As for `CCOC(=O)c1ccc(NC(=O)C(C)Oc2ccccc2C)cc1` (stereo not drawn) [CBK268660], the viability at 28.5 h, 10 µM was found to be 102%. Consider `Cn1cc(-c2nc(C(=O)NCc3ccnc(N4CCCC4)c3)cs2)cn1` [CBK305666], for which the viability at 28.5 h, 10 µM amounted to 92.9%. On to `CNS(=O)(=O)c1cc(C(=O)NCc2ccccc2)ccc1OC` [CBK270277], for which the viability at 28.5 h, 10 µM was found to be 94.9%.

Turning to `COc1cccc(N2CCN(C(C(=O)O)c3cn(C)c4cc(C(=O)O)ccc34)CC2)c1` (stereo not drawn) [CBK286701], the viability at 28.5 h, 10 µM was 114%. Turning to `Cn1ccnc1C1(O)CC2CCC(C1)N2C(=O)c1ccco1` (stereo not drawn) [CBK284179], the viability at 28.5 h, 10 µM was determined as 81.7%.

Turning to `O=C(C1CCCO1)N1C2CCC1CC(O)(c1ccco1)C2` (stereo not drawn) [CBK284035], the viability at 28.5 h, 10 µM was determined as 83%. In the case of `CC(C)(N)CN(Cc1ccccc1)C(=O)/C=C/c1ccccc1` [CBK013891T], the viability at 28.5 h, 10 µM amounted to 90.8%.

On to `COc1ncc(-c2nccnc2OCCOc2ccccc2)c(OC)n1` [CBK106752], for which the viability at 28.5 h, 10 µM was determined as 91.1%. As to `Cc1ccc(C(=O)C2=C(O)C(=O)N(CCN(C)C)C2c2ccccn2)o1` (stereo not drawn) [CBK266536], the viability at 28.5 h, 10 µM is 119%. As to `Cc1ccc(C(=O)COC(=O)c2cc(O)nc3ccccc23)cc1[N+](=O)[O-]` [CBK264085], the viability at 28.5 h, 10 µM amounted to 98.8%. Take `Cc1[nH]c2ccccc2c1C(=O)C(=O)Nc1ccc(C#N)cc1` [CBK269896]: the viability at 28.5 h, 10 µM worked out at 84.6%.

Consider `Cc1nn(C)c(N2CCNCC2)c1NC(=O)C1=CC(=O)CC(C)(C)O1` [CBK050362T], for which the viability at 28.5 h, 10 µM is 99.9%.

In the case of `Cc1ccc(CNC(=O)C2CCN(S(=O)(=O)N3CCOCC3)CC2)cc1` [CBK294467], the viability at 28.5 h, 10 µM came out at 103%. On to `Cn1cc(CNCC2CCN(c3ccccc3)C2)c(-c2ccncc2)n1` (stereo not drawn) [CBK306317], for which the viability at 28.5 h, 10 µM worked out at 94.3%.

Still in this data set, the particulars now being: human, hela cells, % viability, bulk resorufin, single well.
For `Cc1ccccc1N1C(=O)NC(=O)/C(=C/NCCCn2ccnc2)C1=O` [CBK261829], the viability at 28.5 h, 10 µM is 107%.
